Data on 10 compounds can be found in PubChem BioAssay (NCI).

Some test systems named below: M19-MEL melanoma; LXFL 529 NSCLC; DU-145 prostate; MDA-MB-435; HS 578T breast; MDA-N; PC-3 prostate; T-47D breast; P388 leukemia; P388/ADR leukemia; SN12K1 renal; SNB-78 CNS; 786-0 renal.
Holding throughout (experiment): NCI tumour cell line growth inhibition, 48 h

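Growth conditions: 96-well plates. Treatment: test compound, 48 hours, 5 concentrations. Analysis: linear interpolation between bracketing concentrations; unreached endpoints set to highest concentration. TGI: total growth inhibition.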

Consider `CC1(C)Cc2c(C#N)c(N)c3c(c2CO1)C(=O)OC3=O`, for which the TGI in the assay on M19-MEL melanoma and in the assay with LXFL 529 NSCLC was over 100 µM throughout.

With `S=C1CC(c2ccccc2)Sc2ccccc2N1` (stereo not given), the TGI in the assay with DU-145 prostate, with MDA-MB-435, in the assay with HS 578T breast, with MDA-N, with PC-3 prostate and in the assay with T-47D breast was over 100 µM in each case.

Regarding `CC(=O)OC/C=C\Cn1nc(Br)c(=O)[nH]c1=O`, the TGI is 31.9 µM with DU-145 prostate; 29.4 µM in the assay on MDA-MB-435; 54 µM in the assay on HS 578T breast; 32 µM in the assay with MDA-N; 26 µM with PC-3 prostate; 37.1 µM in the assay with T-47D breast.

Consider `CC(=O)NC(c1nc2cc(C)c(C)cc2[nH]1)c1nc2cc(C)c(C)cc2[nH]1`, for which the TGI in the assay with DU-145 prostate is 57.7 µM; in the assay on MDA-MB-435, 42.3 µM; in the assay on HS 578T breast, 79.2 µM; with MDA-N, 48.6 µM; with PC-3 prostate, 94.7 µM; in the assay with T-47D breast, over 100 µM.

With `C/C=C/C1=CC(=O)C(O)C1O` (stereo not given), the TGI with M19-MEL melanoma worked out at 113 µM; with P388 leukemia, 141 µM; in the assay on P388/ADR leukemia, 113 µM; in the assay on SN12K1 renal, 84.2 µM; with SNB-78 CNS, 173 µM.

As for `CC1CCC2(C(=O)O)CCC3(C)C(=CCC4C5(C)CCC(O)C(C)(C)C5CCC43C)C2C1C` (stereo not given), the TGI with DU-145 prostate was 21.6 µM; in the assay with M19-MEL melanoma, 18.9 µM; in the assay on P388 leukemia, 9.48 µM; in the assay with P388/ADR leukemia it was 17.8 µM; in the assay with 786-0 renal it was over 100 µM; with SN12K1 renal it was 12.9 µM. Besides, the TGI in the assay on MDA-MB-435 was 75.1 µM; in the assay with HS 578T breast, 25.2 µM; with MDA-N, 28.2 µM; in the assay with SNB-78 CNS it was 29.3 µM; in the assay on PC-3 prostate it was 29.3 µM; with T-47D breast, 29.3 µM.

With `Cc1[nH]nc(N)c1C(N)=O`, the TGI in the assay on LXFL 529 NSCLC and in the assay with SNB-78 CNS was over 100 µM each time.

As to `CNC(=O)SCC(N)C(=O)O` (stereo not given), the TGI in the assay on P388 leukemia was 39.1 µM; in the assay with P388/ADR leukemia, 58 µM; in the assay on SN12K1 renal, over 100 µM; with SNB-78 CNS, over 100 µM.

Consider `CCOC(=O)c1c(Cl)nc2ccccc2c1N=[N+]=[N-]`, for which the TGI with MDA-MB-435 turned out to be 47.1 µM; in the assay on HS 578T breast, 77.8 µM; in the assay with MDA-N, 44.2 µM; in the assay with PC-3 prostate, 68.5 µM; with T-47D breast, 45.7 µM.

On to `OC1CCOc2ccccc21` (stereo not given), for which the TGI in the assay with M19-MEL melanoma and in the assay on LXFL 529 NSCLC was over 100 µM in each case.
